# How the values were obtained:
# SKOV3 = experiment: Anti-cancer activity against ovarian cancer cells SKOV3 (cell killing in solution / in vitro cell proliferation); format: cell-based; details: Homo sapiens, SK-OV-3, ovarian cancer cells SKOV3
# Method: Biotinylated LLS2 was synthesized in solution and loaded it onto a streptavidin-coated plate. The biotinylated LLS2 immobilized on the plate killed approximately 21% of SKOV3 ovarian cancer cells at 100 μM loading, 16% at 50 μM and 14% at 25 μM (FIG. 4). The killing effect of the LLS2 compound was also tested in solution. […] In addition, LLS2 can kill pancreatic cancer cell line XPA3, prostate cancer cell line PC3, colon cancer cell line HT29, breast cancer cell line MCF7 and lung cancer cell line A549 (FIG. 4).
# [1] = system: 22RV1 prostate cancer cells; experiment: Cell viability of prostate cancer 22RV1 cells after 72 hours treatment; format: cell-based; details: Homo sapiens
SMILES,IC50 (SKOV3) [µM],viability at 2.5 µM [1] [%],viability at 5 µM [1] [%],viability at 10 µM [1] [%]
"CC(=O)OCCN(CCO)c1ccc(-c2nc3cc(C(CC(N)=O)NC(=O)[C@@H](N)Cc4ccc(Cl)c(Cl)c4)ccc3n2Cc2ccc(F)c(F)c2)cc1 (stereo partly drawn) [LLS5, 2-((4-(5-(3-amino-1-((S)-2-amino-3-(3,4-dichlorophenyl)propanamido)-3-oxopropyl)-1-(3,4-difluorobenzyl)-1H-benzo[d]imidazol-2-yl)phenyl)(2-hydroxyethyl)amino)ethyl Acetate]",18.7,–,–,–
"CC(=O)OCCN(CCOC(C)=O)c1ccc(-c2nc3cc(C(CC(N)=O)NCc4ccc(Cl)c(Cl)c4)ccc3n2CC23CC4CC(CC(C4)C2)C3)cc1 (stereo not drawn) [LLS26, ((4-(1-(((1s,3s)-adamantan-1-yl)methyl)-5-(3-amino-1-((3,4-dichlorobenzyl)amino)-3-oxopropyl)-1H-benzo[d]imidazol-2-yl)phenyl)azanediyl)bis(ethane-2,1-diyl) Diacetate]",10.5,–,–,–
"CC(=O)OCCN(CCOC(C)=O)c1ccc(-c2nc3cc(C(CC(N)=O)NCc4ccc(Cl)c(Cl)c4)ccc3n2Cc2ccc(OC(F)(F)F)cc2)cc1 (stereo not drawn) [LLS23, ((4-(5-(3-amino-1-((3,4-dichlorobenzyl)amino)-3-oxopropyl)-1-(4-(trifluoromethoxy)benzyl)-1H-benzo[d]imidazol-2-yl)phenyl)azanediyl)bis(ethane-2,1-diyl) Diacetate]",8.4,–,–,–
"CC(=O)OCCN(CCOC(C)=O)c1ccc(-c2nc3cc(C(CC(N)=O)NCc4ccc(Cl)c(Cl)c4)ccc3n2Cc2ccc(Cl)c(Cl)c2)cc1 (stereo not drawn) [LLS20, ((4-(5-(3-amino-1-((3,4-dichlorobenzyl)amino)-3-oxopropyl)-1-(3,4-dichlorobenzyl)-1H-benzo[d]imidazol-2-yl)phenyl)azanediyl)bis(ethane-2,1-diyl) Diacetate]",7.5,–,–,–
"CC(=O)OCCN(CCOC(C)=O)c1ccc(-c2nc3cc(C(CC(N)=O)N(Cc4ccc(Cl)c(Cl)c4)Cc4ccc(Cl)c(Cl)c4)ccc3n2CC23CC4CC(CC(C4)C2)C3)cc1 (stereo not drawn) [LLS25, ((4-(1-(((1s,3s)-adamantan-1-yl)methyl)-5-(3-amino-1-(bis(3,4-dichlorobenzyl)amino)-3-oxopropyl)-1H-benzo[d]imidazol-2-yl)phenyl)azanediyl)bis(ethane-2,1-diyl) Diacetate]",20.7,–,–,–
"NC(=O)CC(c1ccc2c(c1)nc(-c1ccc(N(CCO)CCO)cc1)n2CC12CC3CC(CC(C3)C1)C2)N(Cc1ccc(Cl)c(Cl)c1)Cc1ccc(Cl)c(Cl)c1 (stereo not drawn) [LLS29, 3-(1-(((1s,3s)-adamantan-1-yl)methyl)-2-(4-(bis(2-hydroxyethyl)amino)phenyl)-1H-benzo[d]imidazol-5-yl)-3-(bis(3,4-dichlorobenzyl)amino)propanamide]",25.5,–,–,–
"CC(=O)OCCN(CCOC(C)=O)c1ccc(CNC(CC(N)=O)c2ccc3c(c2)nc(-c2ccc(N(CCOC(C)=O)CCOC(C)=O)cc2)n3Cc2ccc(Cl)c(Cl)c2)cc1 (stereo not drawn) [LLS37, ((4-(5-(3-amino-1-((4-(bis(2-acetoxyethyl)amino)benzyl)amino)-3-oxopropyl)-1-(3,4-dichlorobenzyl)-1H-benzo[d]imidazol-2-yl)phenyl)azanediyl)bis(ethane-2,1-diyl) Diacetate]",> 50,–,–,–
"NC(=O)CC(NC(=O)[C@@H](N)Cc1ccc(Cl)c(Cl)c1)c1ccc2c(c1)nc(-c1ccc(N(CCO)CCO)cc1)n2Cc1cc(F)ccc1F (stereo partly drawn) [LLS13, (2S)-2-amino-N-(3-amino-1-(2-(4-(bis(2-hydroxyethyl)amino)phenyl)-1-(2,5-difluorobenzyl)-1H-benzo[d]imidazol-5-yl)-3-oxopropyl)-3-(3,4-dichlorophenyl)propanamide]",> 50,–,–,–
"NC(=O)CC(NC(=O)[C@@H](N)Cc1ccc(Cl)c(Cl)c1)c1ccc2c(c1)nc(-c1ccc(N(CCO)CCO)cc1)n2Cc1ccc(F)c(F)c1 (stereo partly drawn) [LLS12, (2S)-2-amino-N-(3-amino-1-(2-(4-(bis(2-hydroxyethyl)amino)phenyl)-1-(3,4-difluorobenzyl)-1H-benzo[d]imidazol-5-yl)-3-oxopropyl)-3-(3,4-dichlorophenyl)propanamide]",> 50,–,–,–
"CC(=O)OCCN(CCO)c1ccc(-c2nc3cc(C(CC(N)=O)NCc4ccc(Cl)c(Cl)c4)ccc3n2Cc2ccc(Cl)c(Cl)c2)cc1 (stereo not drawn) [LLS33, 2-((4-(5-(3-amino-1-((3,4-dichlorobenzyl)amino)-3-oxopropyl)-1-(3,4-dichlorobenzyl)-1H-benzo[d]imidazol-2-yl)phenyl)(2-hydroxyethyl)amino)ethyl Acetate]",10,–,–,–
"CC(=O)OCCN(CCOC(C)=O)c1ccc(-c2nc3cc(C(CC(N)=O)NC(=O)[C@@H](N)[C@H](C)O)ccc3n2Cc2ccc(F)c(F)c2)cc1 (stereo partly drawn) [LLS3, ((4-(5-(3-amino-1-((2S,3S)-2-amino-3-hydroxybutanamido)-3-oxopropyl)-1-(3,4-difluorobenzyl)-1H-benzo[d]imidazol-2-yl)phenyl)azanediyl)bis(ethane-2,1-diyl) Diacetate]",37.6,–,–,–
"CC(=O)OCCN(CCOC(C)=O)c1ccc(-c2nc3cc(C(CC(N)=O)NC(=O)Nc4ccc(Cl)c(Cl)c4)ccc3n2Cc2ccc(F)c(F)c2)cc1 (stereo not drawn) [LLS16, ((4-(5-(3-amino-1-(3-(3,4-dichlorophenyl)ureido)-3-oxopropyl)-1-(3,4-difluorobenzyl)-1H-benzo[d]imidazol-2-yl)phenyl)azanediyl)bis(ethane-2,1-diyl) Diacetate]",35.1,–,–,–
"CN1CCN(c2ccc(-c3nc4cc(C(CC(N)=O)NCC5CCCCC5)ccc4n3Cc3ccc(Cl)c(C(F)(F)F)c3)cc2)CC1 (stereo not drawn) [LLS99, 3-(1-(4-chloro-3-(trifluoromethyl)benzyl)-2-(4-(4-methylpiperazin-1-yl)phenyl)-1H-benzo[d]imidazol-5-yl)-3-((cyclohexylmethyl)amino)propanamide]",–,1,0,0
"NC(=O)CC(NCc1ccc(Cl)c(Cl)c1)c1ccc2c(c1)nc(-c1cccc(OCCN3CCOCC3)c1)n2Cc1ccc(Cl)c(Cl)c1 (stereo not drawn) [LLS87, 3-(1-(3,4-dichlorobenzyl)-2-(3-(2-morpholinoethoxy)phenyl)-1H-benzo[d]imidazol-5-yl)-3-((3,4-dichlorobenzyl)amino)propanamide]",–,76,56,0
"NC(=O)CC(NCC1CCCCC1)c1ccc2c(c1)nc(-c1ccc(N3CCOCC3)cc1)n2Cc1ccc2c(c1)OCO2 (stereo not drawn) [LLS107, 3-(1-(benzo[d][1,3]dioxol-5-ylmethyl)-2-(4-morpholinophenyl)-1H-benzo[d]imidazol-5-yl)-3-((cyclohexylmethyl)amino)propanamide]",–,67,4,0
"NC(=O)CC(NCc1ccc(Cl)c(Cl)c1)c1ccc2c(c1)nc(-c1ccc(N(CCO)CCO)cc1)n2Cc1cccc2ccccc12 (stereo not drawn) [LLS102, 3-(2-(4-(bis(2-hydroxyethyl)amino)phenyl)-1-(naphthalen-1-ylmethyl)-1H-benzo[d]imidazol-5-yl)-3-((3,4-dichlorobenzyl)amino)propanamide]",–,23,0,0
"NC(=O)CC(NCc1ccc(Cl)c(Cl)c1)c1ccc2c(c1)nc(-c1ccc(N(CCO)CCO)cc1)n2Cc1ccc(Br)cc1 (stereo not drawn) [LLS93, 3-(2-(4-(bis(2-hydroxyethyl)amino)phenyl)-1-(4-bromobenzyl)-1H-benzo[d]imidazol-5-yl)-3-((3,4-dichlorobenzyl)amino)propanamide]",–,22,2,0
"NC(=O)CC(NCc1ccncc1)c1ccc2c(c1)nc(-c1ccc(N(CCO)CCO)cc1)n2Cc1ccc(Cl)c(Cl)c1 (stereo not drawn) [LLS84, 3-(2-(4-(bis(2-hydroxyethyl)amino)phenyl)-1-(3,4-dichlorobenzyl)-1H-benzo[d]imidazol-5-yl)-3-((pyridin-4-ylmethyl)amino)propanamide]",–,119,109,138
NC(=O)CC(NCc1ccc(Cl)c(Cl)c1)c1ccc2c(c1)nc(-c1ccc(N(CCO)CCO)cc1)n2CCc1ccc(OC(F)(F)F)cc1 (stereo not drawn) [LLS100],–,99,28,0
"CN1CCN(c2ccc(-c3nc4cc(C(CC(N)=O)NCc5ccc(Cl)c(Cl)c5)ccc4n3Cc3ccc(Cl)c(Cl)c3)cc2)CC1 (stereo not drawn) [LLS86, 3-(1-(3,4-dichlorobenzyl)-2-(4-(4-methylpiperazin-1-yl)phenyl)-1H-benzo[d]imidazol-5-yl)-3-((3,4-dichlorobenzyl)amino)propanamide]",–,45,0,0
"NC(=O)CC(NCC1CCCCC1)c1ccc2c(c1)nc(-c1ccc(N3CCOCC3)cc1)n2Cc1ccc(Br)cc1 (stereo not drawn) [LLS94, 3-(1-(4-bromobenzyl)-2-(4-morpholinophenyl)-1H-benzo[d]imidazol-5-yl)-3-((cyclohexylmethyl)amino)propanamide]",–,3,0,0
"CN(C)CCCOc1ccc(-c2nc3cc(C(CC(N)=O)NCc4ccc(Cl)c(Cl)c4)ccc3n2Cc2ccc(Cl)c(Cl)c2)cc1 (stereo not drawn) [LLS85, 3-(1-(3,4-dichlorobenzyl)-2-(4-(3-(dimethylamino)propoxy)phenyl)-1H-benzo[d]imidazol-5-yl)-3-((3,4-dichlorobenzyl)amino)propanamide]",–,65,1,0
"NC(=O)CC(NCC1CCCCC1)c1ccc2c(c1)nc(-c1ccc(N3CCOCC3)cc1)n2CCc1ccccn1 (stereo not drawn) [LLS109, 3-((cyclohexylmethyl)amino)-3-(2-(4-morpholinophenyl)-1-(2-(pyridin-2-yl)ethyl)-1H-benzo[d]imidazol-5-yl)propanamide]",–,98,88,88

# Reference: patent US10844052B2, “LLS compounds for treatment of cancer” (THE REGENTS OF THE UNIVERSITY OF CALIFORNIA, priority 2016, dated 2020)
